Measured values: PMC7794376 (Nature Communications, 2021)
In brackets after ≈: the same amount, converted by molar mass. Several values for one entry are separate records, joined by “and”; a condition that tells them apart may be missing. Equal entries are not always repeated. Where two headings read alike, the source gives them in different places.

Columns and labels:
[1] = molecular target: MtbCoaBC (Mycobacterium tuberculosis, UniProt P9WNZ1); experiment: biochemical; assay type: biochemical; details: for Activity R1 / Activity R3: slope of absorbance at 360 nm vs time (s); for activity at 0.0625 µM / activity at 0.25 µM / activity at 0.5 µM / activity at 1 µM / activity at 2 µM: relative to average DMSO CT; for IC50: read-out: IC50 EnzChek MtbCoaBC; for Activity % R1 / Activity % R3 / Activity %: relative to average CT; for Activity % / Inhibition %: MtbCoaBC, replicates R1-R3; for reaction rate (slope of absorbance at 360 nm versus time), replicates: IC50 MtbCoaBC MlCoA; for reaction rate (slope of absorbance at 360 nm versus time), replicates / % inhibition, replicates / % remaining activity relative to uninhibited control, replicates: three replicates
Chain of MtbCoaBC (P9WNZ1 whole entry): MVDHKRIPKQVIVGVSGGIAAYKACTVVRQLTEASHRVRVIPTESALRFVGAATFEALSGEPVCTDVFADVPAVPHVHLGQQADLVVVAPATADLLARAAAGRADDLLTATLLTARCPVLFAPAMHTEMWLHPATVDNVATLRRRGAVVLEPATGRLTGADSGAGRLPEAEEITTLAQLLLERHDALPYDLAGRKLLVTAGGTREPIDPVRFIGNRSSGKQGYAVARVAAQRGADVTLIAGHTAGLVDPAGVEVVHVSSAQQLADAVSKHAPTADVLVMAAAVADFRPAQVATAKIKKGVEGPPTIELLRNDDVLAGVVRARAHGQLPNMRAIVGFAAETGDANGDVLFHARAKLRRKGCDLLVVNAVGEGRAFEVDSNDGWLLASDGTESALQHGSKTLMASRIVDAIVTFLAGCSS

[2] = test system: M. tuberculosis H37Rv; experiment: MIC determination in different media; assay type: cell-based; details: Mycobacterium tuberculosis
[3] = MlCoA concentration 512 (log 2.70927; unit not given)
[4] = MlCoA concentration 1024 (log 3.0103; unit not given)

For `O=c1cc(-c2ccc(O)cc2)oc2cc(O)c(O)c(O)c12` [2c], the “Activity R1” value ([1]; 0.03125 uM 2c, replicate R1) was 0.0001739, the “Activity R3” value ([1]; 0.03125 uM 2c, replicate R3) was 0.000177 and the inhibition at 0.0625 µM ([1]; 0.0625 uM 2c, replicate R1, read-out: Inhibition % R1) was 8.57%. The activity at 0.0625 µM ([1]; 0.0625 uM 2c, replicate R1, read-out: Activity % R1) was 91.4%, the “Activity R1” value ([1]; 0.0625 uM 2c, replicate R1) was 0.0001646 and the inhibition at 0.0625 µM ([1]; 0.0625 uM 2c, replicate R2, read-out: Inhibition % R2) was 5.71%. The activity at 0.0625 µM ([1]; 0.0625 uM 2c, replicate R2, read-out: Activity % R2) was 94.3%, the inhibition at 0.0625 µM ([1]; 0.0625 uM 2c, replicate R3, read-out: Inhibition % R3) was 10.2% and the activity at 0.0625 µM ([1]; 0.0625 uM 2c, replicate R3, read-out: Activity % R3) was 89.8%. For the same compound, the “Activity R3” value ([1]; 0.0625 uM 2c, replicate R3) was 0.0001617, the inhibition at 0.25 µM ([1]; 0.25 uM 2c, replicate R1, read-out: Inhibition % R1) was 34% and the activity at 0.25 µM ([1]; 0.25 uM 2c, replicate R1, read-out: Activity % R1) was 66%. The “Activity R1” value ([1]; 0.25 uM 2c, replicate R1) was 0.0001189, the inhibition at 0.25 µM ([1]; 0.25 uM 2c, replicate R2, read-out: Inhibition % R2) was 32.6% and the activity at 0.25 µM ([1]; 0.25 uM 2c, replicate R2, read-out: Activity % R2) was 67.4%. The inhibition at 0.25 µM ([1]; 0.25 uM 2c, replicate R3, read-out: Inhibition % R3) was 28.9%, the activity at 0.25 µM ([1]; 0.25 uM 2c, replicate R3, read-out: Activity % R3) was 71.1% and the “Activity R3” value ([1]; 0.25 uM 2c, replicate R3) was 0.0001279. The inhibition at 0.5 µM ([1]; 0.5 uM 2c, replicate R1, read-out: Inhibition % R1) was 56.9%, the activity at 0.5 µM ([1]; 0.5 uM 2c, replicate R1, read-out: Activity % R1) was 43.1% and the “Activity R1” value ([1]; 0.5 uM 2c, replicate R1) was 0.000077692. For the same compound, the inhibition at 0.5 µM ([1]; 0.5 uM 2c, replicate R2, read-out: Inhibition % R2) was 60.3%, the activity at 0.5 µM ([1]; 0.5 uM 2c, replicate R2, read-out: Activity % R2) was 39.7% and the inhibition at 0.5 µM ([1]; 0.5 uM 2c, replicate R3, read-out: Inhibition % R3) was 53.5%. For the same compound, the activity at 0.5 µM ([1]; 0.5 uM 2c, replicate R3, read-out: Activity % R3) was 46.5%, the “Activity R3” value ([1]; 0.5 uM 2c, replicate R3) was 0.000083810 and the inhibition at 1 µM ([1]; 1 uM 2c, replicate R1, read-out: Inhibition % R1) was 77.6%. For the same compound, the activity at 1 µM ([1]; 1 uM 2c, replicate R1, read-out: Activity % R1) was 22.4%, the “Activity R1” value ([1]; 1 uM 2c, replicate R1) was 0.000040344 and the inhibition at 1 µM ([1]; 1 uM 2c, replicate R2, read-out: Inhibition % R2) was 82.6%. For the same compound, the activity at 1 µM ([1]; 1 uM 2c, replicate R2, read-out: Activity % R2) was 17.4%, the inhibition at 1 µM ([1]; 1 uM 2c, replicate R3, read-out: Inhibition % R3) was 72.1% and the activity at 1 µM ([1]; 1 uM 2c, replicate R3, read-out: Activity % R3) was 27.9%. The “Activity R3” value ([1]; 1 uM 2c, replicate R3) was 0.000050204, the inhibition at 2 µM ([1]; 2 uM 2c, replicate R1, read-out: Inhibition % R1) was 91.9% and the activity at 2 µM ([1]; 2 uM 2c, replicate R1, read-out: Activity % R1) was 8.07%. For the same compound, the “Activity R1” value ([1]; 2 uM 2c, replicate R1) was 0.000014525, the inhibition at 2 µM ([1]; 2 uM 2c, replicate R2, read-out: Inhibition % R2) was 95% and the activity at 2 µM ([1]; 2 uM 2c, replicate R2, read-out: Activity % R2) was 5.02%. For the same compound, the inhibition at 2 µM ([1]; 2 uM 2c, replicate R3, read-out: Inhibition % R3) was 84.9%, the activity at 2 µM ([1]; 2 uM 2c, replicate R3, read-out: Activity % R3) was 15.1% and the “Activity R3” value ([1]; 2 uM 2c, replicate R3) was 0.000027204. The activity at 0.03125 µM ([1]; read-out: Activity % R1) was 96.6%, the activity at 0.03125 µM ([1]; read-out: Activity % R2) was 96.7% and the activity at 0.03125 µM ([1]; read-out: Activity % R3) was 98.3%. For the same compound, the IC50 [1] was 0.41 ± 0.03 µM, the inhibition at 0.03125 µM ([1]; read-out: Inhibition % R1) was 3.4% and the inhibition at 0.03125 µM ([1]; read-out: Inhibition % R2) was 3.27%. For the same compound, the inhibition at 0.03125 µM ([1]; read-out: Inhibition % R3) was 1.68%, the MIC ([2]; read-out: Minimum inhibitory concentration (MIC), 7H9/ADC/Glycerol) was > 250 µM and the MIC ([2]; read-out: Minimum inhibitory concentration (MIC), 7H9/Cholesterol/Tyloxapol) was > 250 µM. For the same compound, the MIC ([2]; read-out: Minimum inhibitory concentration (MIC), GAST/Fe) was 125 µM (≈ 35.8 µg/mL).
For succinyl-CoA [SucCoA], the “Activity % R1” value ([1]; 8 uM SucCoA, replicate R1) was 96.11%, the “Activity % R3” value ([1]; 8 uM SucCoA, replicate R3) was 95.1% and the “Inhibition % R1” value ([1]; 8 uM SucCoA, replicate R1) was 3.89%. The “Inhibition % R3” value ([1]; 8 uM SucCoA, replicate R3) was 4.90%, the “Activity R1” value ([1]; 8 uM SucCoA, replicate R1) was 0.0001648 and the “Activity R3” value ([1]; 8 uM SucCoA, replicate R3) was 0.0001631. For the same compound, the “Activity % R1” value ([1]; 16 uM SucCoA, replicate R1) was 73.57%, the “Activity % R3” value ([1]; 16 uM SucCoA, replicate R3) was 71.48% and the “Inhibition % R1” value ([1]; 16 uM SucCoA, replicate R1) was 26.43%. For the same compound, the “Inhibition % R3” value ([1]; 16 uM SucCoA, replicate R3) was 28.52%, the “Activity R1” value ([1]; 16 uM SucCoA, replicate R1) was 0.0001261 and the “Activity R3” value ([1]; 16 uM SucCoA, replicate R3) was 0.0001226. The “Activity % R1” value ([1]; 32 uM SucCoA, replicate R1) was 58.32%, the “Activity % R3” value ([1]; 32 uM SucCoA, replicate R3) was 59.99% and the “Inhibition % R1” value ([1]; 32 uM SucCoA, replicate R1) was 41.68%. For the same compound, the “Inhibition % R3” value ([1]; 32 uM SucCoA, replicate R3) was 40.01%, the “Activity R1” value ([1]; 32 uM SucCoA, replicate R1) was 0.000099995 and the “Activity R3” value ([1]; 32 uM SucCoA, replicate R3) was 0.0001029. For the same compound, the “Activity % R1” value ([1]; 64 uM SucCoA, replicate R1) was 30.98%, the “Activity % R3” value ([1]; 64 uM SucCoA, replicate R3) was 29.66% and the “Inhibition % R1” value ([1]; 64 uM SucCoA, replicate R1) was 69.02%. The “Inhibition % R3” value ([1]; 64 uM SucCoA, replicate R3) was 70.34%, the “Activity R1” value ([1]; 64 uM SucCoA, replicate R1) was 0.000053122 and the “Activity R3” value ([1]; 64 uM SucCoA, replicate R3) was 0.000050860. For the same compound, the “Activity % R1” value ([1]; 128 uM SucCoA, replicate R1) was 16.56%, the “Activity % R3” value ([1]; 128 uM SucCoA, replicate R3) was 18.74% and the “Inhibition % R1” value ([1]; 128 uM SucCoA, replicate R1) was 83.44%. The “Inhibition % R3” value ([1]; 128 uM SucCoA, replicate R3) was 81.26%, the “Activity R1” value ([1]; 128 uM SucCoA, replicate R1) was 0.000028403 and the “Activity R3” value ([1]; 128 uM SucCoA, replicate R3) was 0.000032131. For the same compound, the “Activity % R1” value ([1]; 256 uM SucCoA, replicate R1) was 6.801%, the “Activity % R3” value ([1]; 256 uM SucCoA, replicate R3) was 8.41% and the “Inhibition % R1” value ([1]; 256 uM SucCoA, replicate R1) was 93.20%. For the same compound, the “Inhibition % R3” value ([1]; 256 uM SucCoA, replicate R3) was 91.59%, the “Activity R1” value ([1]; 256 uM SucCoA, replicate R1) was 0.000011661 and the “Activity R3” value ([1]; 256 uM SucCoA, replicate R3) was 0.000014421.
For `CC(C)(COP(=O)(O)OP(=O)(O)OC[C@H]1O[C@@H](n2cnc3c(N)ncnc32)[C@H](O)[C@@H]1OP(=O)(O)O)[C@@H](O)C(=O)NCCC(=O)NCCSC(=O)CC(=O)O` [MlCoA, malonyl-CoA], the Activity % ([1]; 8 uM MlCoA) was 92.1% and 91.15% and 93.21%, the Inhibition % ([1]; 8 uM MlCoA) was 8.85% and 6.79% and 7.90% and the Activity % ([1]; 16 uM MlCoA) was 76.14% and 76.7% and 75.8%. The Inhibition % ([1]; 16 uM MlCoA) was 23.30% and 24.20% and 23.86%, the Activity % ([1]; 32 uM MlCoA) was 63.4% and 64.14% and 61% and the Inhibition % ([1]; 32 uM MlCoA) was 35.86% and 39.00% and 36.60%. The Activity % ([1]; 64 uM MlCoA) was 43.31% and 44.56% and 41.61%, the Inhibition % ([1]; 64 uM MlCoA) was 55.44% and 58.39% and 56.69% and the Activity % ([1]; 128 uM MlCoA) was 23.32% and 26.33% and 20.47%. For the same compound, the Inhibition % ([1]; 128 uM MlCoA) was 73.67% and 79.53% and 76.68%, the Activity % ([1]; 256 uM MlCoA) was 12.52% and 10.98% and 14.64% and the Inhibition % ([1]; 256 uM MlCoA) was 89.02% and 85.36% and 87.48%. For the same compound, the IC50 ([1]; CoaB activity, […] CTP, […] PPA, 500 µM L-cysteine, average of three independent experiments ± SD) was 48 ± 3 µM, the “reaction rate (slope of absorbance at 360 nm versus time), replicates” value [1, 3] was 0.000003647 and 0.000000222 and 0.000004502 and the “% inhibition, replicates” value [1, 3] was 99.87 and 97.43 and 97.92. The “% remaining activity relative to uninhibited control, replicates” value [1, 3] was 2.081 and 0.1265 and 2.569, the “reaction rate (slope of absorbance at 360 nm versus time), replicates” value [1, 4] was 0.000003588 and 0.000000204 and 0.000003109 and the “% inhibition, replicates” value [1, 4] was 99.88 and 98.23 and 97.95. The “% remaining activity relative to uninhibited control, replicates” value [1, 4] was 2.047 and 0.1162 and 1.774.
